Laboratory results from the COVID Moonshot data (paper PMC11187573), “Identification of SARS-CoV-2 Mpro inhibitors through deep reinforcement learning for de novo drug design and computational chemistry approaches” (RSC Medicinal Chemistry, 2024).

What was measured:
[1] = biological target: SARS-CoV-2 Main Protease (SARS-CoV-2) (UniProt P0DTD1)
[2] = biological target: SARS-CoV-2 Main Protease (SARS-CoV-2) (UniProt P0DTD1); remark: listed apart in the source

Compound	IC50 [1] [µM]	inhibition ([1]; 50.0 µM) [%]	inhibition ([2]; 20.0 µM) [%]	inhibition ([2]; 50.0 µM) [%]	inhibition ([1]; 20.0 µM) [%]	IC50 [2] [µM]
Cc1ccc(OCCN2C(=O)C(=O)c3cccc(Cl)c32)cc1	2.15	77	0.316	5.65	–	–
O=C(CCl)N1CCN(Cc2cc(O)cc(Cl)c2)CC1	1.57	98.9	75	89.5	92.7	–
C=CC(=O)N(c1ccc(C(F)(F)F)cc1)C(C(=O)Nc1ccc(OC)cc1)c1cccnc1 (stereo not given)	–	–	40.3	60.7	60	–
C=CC(=O)N(C1CCOC1=O)C(C(=O)NC(C)(C)C)c1cccnc1 (stereo not given)	–	0	-5.08	-7.63	–	–
COC(=O)[C@H](CO)NC(=O)[C@H](Cc1ccccc1)NC(=O)OCc1ccccc1 (stereo in doubt)	–	0	1.06	2.61	–	–
N#Cc1cncc(NC(=O)Cc2c[nH]c3ncccc23)c1	–	0	-0.384	0.0775	–	–
COC(=O)c1c(C)n(S(C)(=O)=O)c2ccc(N(C(=O)c3ccco3)S(C)(=O)=O)cc12	0.335	–	47.7	97.8	–	–
O=C(NCc1ccc2c(c1)OCO2)c1nc(S(=O)(=O)Cc2ccccc2)ncc1Cl	0.509	–	98.5	99.8	–	–
Cc1cn2c(-c3cccnc3)c(-c3ccc(F)cc3)nc2s1	–	31.5	-2.02	1.34	–	–
CC(=O)/C(C#N)=C(\O)Nc1ccc(C(F)(F)F)cc1	–	22.2	-2.89	-3	–	–
C/C(O)=C(\C#N)C(=O)Nc1ccc(C(F)(F)F)cc1	–	22.2	-2.89	-3	–	–
O=C(CCl)N1CCN(S(=O)(=O)c2ccc(Cc3cccc4ccccc34)cc2)CC1	15.2	89	20.6	29.9	–	–
O=C(Nc1cccnc1)Nc1cc(O)cc(Cl)c1	–	19.4	4.43	21.2	–	–
O=[N+]([O-])c1cnc(Sc2nccc(-c3cccnc3)n2)s1	1.44	–	9.63	37.5	–	–
CC(C)(C)c1ccc(-c2nnc(Sc3cnc([N+](=O)[O-])s3)o2)cc1	0.164	–	8.3	69.9	–	4.16
CCOC(=O)c1ccc(NC(=O)CC2SC(=O)N(c3ccccc3)C2=O)cc1 (stereo not given)	0.635	–	79	80.7	–	–
N#Cc1ccc(CN2CCC(C3CCNC3)CC2)cc1 (stereo not given)	1.36	–	97.1	98.9	–	–
COc1ccccc1OCCN1C(=O)C(=O)c2cc(Br)cc(C)c21	–	48.1	-2.64	-0.707	–	–
O=C(Nc1cccnc1)N(CCN1CCOCC1)c1cccc(Cl)c1	–	59.4	24.4	49.6	–	–
COC(=O)c1cc(Br)cc2c1NC(=O)C2=O	42.3	61.7	-5.73	-5.38	–	–

Compound	IC50 [1] [µM]	inhibition ([1]; 50.0 µM) [%]	inhibition ([2]; 20.0 µM) [%]	inhibition ([2]; 50.0 µM) [%]	inhibition ([1]; 20.0 µM) [%]	IC50 [2] [µM]
CC(C(=O)Nc1cnccc1O)c1ccccc1 (stereo not given)	–	0	0.187	0.74	–	–
CC(C)n1cnnc1CNC(=O)C1CCOc2ccccc21 (stereo not given)	–	0	-4.11	-1.11	–	–
OC[C@@]1(F)CCN(c2nc(-c3cccnc3)nc3sc4c(c23)CCC4)C1 (stereo in doubt)	–	0	1.46	6.05	–	–
Nc1cncc2c1CCCN2C(=O)Cc1cccc(Cl)c1	54.2	–	–	–	–	32.5
O=C(C(F)Cl)N1CCN(Cc2cccc3ccccc23)CC1 (stereo not given)	–	9.11	20.5	29.5	–	–
Nc1ncc(S(=O)(=O)c2ccc(Cl)cc2)c(N)n1	–	0	–	-22.1	–	–
O=C(NCCN1CCN(C(=O)CCl)CC1)c1cccc2ccccc12	–	23.8	6.97	4.69	–	–
COc1cccc(C(=O)Nc2n[nH]c(SCc3ccc(Cl)cc3)n2)c1	0.2	–	8.77	32.5	–	–
COc1cc(OC)cc(Oc2ccc(CNC(=O)Cn3nnc4ccccc43)cc2)c1	–	0	4.58	17.3	–	–
Cc1ccn2c(-c3ccc4[nH]ncc4c3)c(-c3ccc(F)cc3)nc2c1	–	50.8	0.801	0.943	–	–
C=CC(=O)N(c1ccc(C(F)(F)F)cc1)C(C(=O)NCCc1cccc(F)c1)c1cncc(O)c1 (stereo not given)	17.3	–	26.8	44.9	–	–
Cc1ccc(S(=O)(=O)Nc2c(-c3cccnc3)nc3ccccn23)c(C)c1	–	0	2.5	7.7	–	–
CS(=O)(=O)c1ccc(N2CCNCC2)cc1	83.8	–	-2.52	5.05	–	–
Cc1nc(N)sc1CN1CCN(Cc2cccc(Cl)c2)C1=O	–	0	5.38	35.6	–	–
Cc1cc(C)nc(NC2CCN(C(=O)CCl)CC2)n1	19.5	100	46.1	81.5	–	–
COC(=O)c1c(C)nn(C(=O)c2cccs2)c1-c1snnc1C	0.522	–	35	77	–	–
O=C1Nc2ccc(OCCF)cc2C1=O	45.2	56.2	-6.86	-2.92	–	–
Cc1nnc(NC(=O)C2COc3ccc(Cl)cc32)n1C1CC1 (stereo not given)	–	0	-63.2	-2.41	–	–
COc1ccccc1OCCNC(=O)c1cc(=O)[nH]c2cccc(C)c12	2.6	89.7	91.8	96.4	–	–
C=CC(=O)N1CC(NCc2c[nH]c3ccc(C#N)cc23)C1	–	0	-2.15	15.4	–	–

Compound	IC50 [1] [µM]	inhibition ([1]; 50.0 µM) [%]	inhibition ([2]; 20.0 µM) [%]	inhibition ([2]; 50.0 µM) [%]	inhibition ([1]; 20.0 µM) [%]	IC50 [2] [µM]
C=CC(=O)N(c1ccc2c(c1)C=CCCC2)C(C(=O)NC(C)(C)C)c1cccnc1 (stereo not given)	–	0	12.4	25.9	–	–
COc1ccc(-n2cc(CN3CCN(C(=O)CCl)CC3)nn2)cc1	–	24.1	10.9	24.9	–	–
CC(C)n1c(NC(=O)C2CCOc3ccccc32)nc2ccccc21 (stereo not given)	–	8.85	27.9	-2.12	–	–
CC(C)(C)NC(=O)CN1C(=O)C(=O)c2cccc(Br)c21	–	0	-2.41	1.28	–	–
Cc1ccc(S(=O)(=O)N2CCC(NC(=O)N(C)Cc3cc(C)on3)CC2)cc1	–	0	-1.1	2.6	–	–
COc1cc(OC)cc(Oc2cccc(CNC(=O)Cn3nnc4ccccc43)c2)c1	–	0	-3.39	0.116	–	–
O=C(Oc1cncc(Cl)c1)c1cccc2[nH]ccc12	–	100	99.8	100	–	–
COc1ccc(Cl)cc1N1CCN(Cc2cc(=O)[nH]c3ccccc23)C1=O	–	0	-1.82	4.69	–	–
O=C(NCc1cccnn1)Nc1cccc(-c2ncc3n2CCCC3)c1	–	0	-2.92	-5.29	–	–
Cc1cc(S(=O)(=O)c2c([N+](=O)[O-])cc(C(F)(F)F)cc2[N+](=O)[O-])c(Cl)cc1Cl	–	34.8	–	9.61	–	–
O=C(CCl)N1CCN(Cc2cnc(Cc3ccccc3)s2)CC1	34.6	97.6	41.5	51.6	–	–
CC(C)c1nc(CN(C)C(=O)N[C@H](C(=O)N[C@@H](Cc2ccccc2)C[C@H](O)[C@H](Cc2ccccc2)NC(=O)OCc2cncs2)C(C)C)cs1 (stereo in doubt)	–	–	2.31	6.72	0	–
C=CC(=O)NCC(=O)N(Cc1ccccc1)C[C@H](O)c1ccccc1 (stereo in doubt)	–	0	-0.281	0.986	–	–
Cc1ccc2nc(-c3ccc(N)cc3)sc2c1S(=O)(=O)O	–	0	–	21.2	–	–
CN1CCN(C(=O)CNc2c(S(N)(=O)=O)ccc3ccccc23)CC1	–	0	-0.961	0.321	–	–
COC(=O)c1c(NCCCc2ccccc2)c2cc(F)ccc2[nH]c1=O	68.6	–	20.5	7.56	–	–
CCN(Cc1cccc(-c2ccncc2)c1)C(=O)Cn1nnc2ccccc21	–	0	3.37	15.6	–	–
CNC(=O)c1ccc(CS(=O)(=O)NCC(F)(F)c2ccc(F)cc2F)cc1	–	0	6.87	9.79	–	–
